The source of these data is patent US10752624B2, “Kinase inhibitors” (Origenis GmbH, priority 2012, dated 2020).

What is called IC50 is the concentration at which inhibition is half-maximal.

Test [1] concerns the target T1, SYK kinase (Homo sapiens, UniProt P43405).
T1 construct: purchased Invitrogen, Carlsbad
The test can be described thus: SYK Assay (OMNIA Kinase Assay, SOX peptide fluorescence). It is filed as biochemical. The settings on record: 1 mM ATP, 10 μM Omnia Peptide Substrate Tyr 7, 30° C., readings for 30 minutes; read-out: SYK Activities: IC50. Here is the method:
In the assay OMNIA® KINASE ASSAY by Invitrogen Corporation (Carlsbad) the effect of invention of a compound on the phosphorylation is determined by measurement of fluorescence intensity of a chelation-enhanced fluorophore called SOX. Upon phosphorylation of the peptide by the kinase of interest, Mg2+ is chelated to form a bridge between the SOX moiety and the phosphate group that is transferred to the specific tyrosine on the peptide. The fluorescence intensity is directly proportional to the amount of peptide phosphorylation.
To the wells of an 384 well small volume plate (Greiner, Frickenhausen) are added (i) the compound under test in 5% DMSO/distilled water (2 μl), (ii) 16 μl of the master mix containing ATP, DTT, Kinase Reaction Buffer, Omina Peptide Substrate Tyr 7 resulting in a final concentration of 1 mM ATP, 0.2 mM DTT and 10 μM Peptide Substrate.
The Master Mix and the assay plate was incubated to reaction temperature before the measurement (30° C.). The reaction was started with addition of (iii) 2 μl 4 μg/ml SYK kinase (Invitrogen, Carlsbad). During measurement fluorescence intensity readings were collected using a TECAN M1000 at a wavelength of λex 360/λem 485 nm every 30 s for 30 minutes. The reaction velocity was plotted versus the inhibitor concentration to determine the IC50 using XLFit 5.0 (IDBS, Guildford) to fit to a sigmoidal dose response curve.

Test [2] addresses LRRK2 (Homo sapiens, UniProt Q5S007). The test can be described thus: LRRK2-LRRK2 G2019S-Assay (LanthaScreen Eu Kinase Binding Assay). The conditions noted are these: 5 nM LRRK2, 10 nM tracer 236, 2 nM EU-Anti-GST antibody, 1 h at RT; read-out: LRRK2 Activities: IC50. The gist of the method:
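Compound competition with Alexa Fluor 647 tracer 236 (10 nM) was measured after 1 h at room temperature, using 5 nM LRRK2 (wild type or mutant) bound to 2 nM Eu-anti-GST antibody. IC50 was derived from the acceptor/donor (665/615 nm) ratio using a variable-slope dose-response fit.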
(In general: Time-resolved FRET reads energy transfer from a long-lived donor to a nearby acceptor.)

Chain of LRRK2 (Q5S007 970-2527 limits assumed): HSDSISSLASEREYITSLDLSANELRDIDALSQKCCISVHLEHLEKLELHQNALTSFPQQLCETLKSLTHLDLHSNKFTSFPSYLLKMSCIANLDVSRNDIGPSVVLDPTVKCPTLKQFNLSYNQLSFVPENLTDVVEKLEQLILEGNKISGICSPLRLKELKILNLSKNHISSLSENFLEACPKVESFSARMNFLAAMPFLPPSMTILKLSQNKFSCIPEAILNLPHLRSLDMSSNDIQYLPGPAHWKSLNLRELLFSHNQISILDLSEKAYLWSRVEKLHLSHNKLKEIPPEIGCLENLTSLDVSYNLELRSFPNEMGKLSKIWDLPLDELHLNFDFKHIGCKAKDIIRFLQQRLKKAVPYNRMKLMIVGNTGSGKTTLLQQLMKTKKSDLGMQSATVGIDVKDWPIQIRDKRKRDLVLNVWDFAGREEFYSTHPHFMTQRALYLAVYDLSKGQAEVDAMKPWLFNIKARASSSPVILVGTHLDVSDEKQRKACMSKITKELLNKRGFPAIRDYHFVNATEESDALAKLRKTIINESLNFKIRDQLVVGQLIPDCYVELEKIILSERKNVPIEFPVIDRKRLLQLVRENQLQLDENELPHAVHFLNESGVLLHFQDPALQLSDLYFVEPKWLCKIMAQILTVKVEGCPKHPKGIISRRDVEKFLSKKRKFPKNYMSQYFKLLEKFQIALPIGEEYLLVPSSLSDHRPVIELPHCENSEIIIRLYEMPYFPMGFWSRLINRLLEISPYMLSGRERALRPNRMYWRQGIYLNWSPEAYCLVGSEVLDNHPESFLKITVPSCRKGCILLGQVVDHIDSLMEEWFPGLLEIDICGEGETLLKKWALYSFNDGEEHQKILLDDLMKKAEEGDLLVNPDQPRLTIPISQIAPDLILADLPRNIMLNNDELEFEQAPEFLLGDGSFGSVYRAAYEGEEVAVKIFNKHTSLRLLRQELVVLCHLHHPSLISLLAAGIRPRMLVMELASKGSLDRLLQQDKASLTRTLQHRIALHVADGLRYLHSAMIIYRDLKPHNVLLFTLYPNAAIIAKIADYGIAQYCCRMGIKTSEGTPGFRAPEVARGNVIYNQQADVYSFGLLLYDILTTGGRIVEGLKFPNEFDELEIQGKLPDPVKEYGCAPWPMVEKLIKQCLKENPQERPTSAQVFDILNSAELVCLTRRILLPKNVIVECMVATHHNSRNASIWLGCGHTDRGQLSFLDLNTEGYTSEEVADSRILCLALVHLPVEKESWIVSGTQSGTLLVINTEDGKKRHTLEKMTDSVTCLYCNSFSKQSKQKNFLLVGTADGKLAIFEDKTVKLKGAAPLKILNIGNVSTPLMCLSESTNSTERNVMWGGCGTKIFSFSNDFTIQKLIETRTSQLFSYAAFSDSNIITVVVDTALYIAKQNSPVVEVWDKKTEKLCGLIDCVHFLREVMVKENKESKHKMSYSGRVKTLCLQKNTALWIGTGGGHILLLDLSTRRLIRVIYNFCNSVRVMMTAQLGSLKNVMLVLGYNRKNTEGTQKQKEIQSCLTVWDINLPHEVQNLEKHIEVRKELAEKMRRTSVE

With `COc1ccc2nc(Nc3cnn(C4CCCOC4)c3)c3n[nH]cc3c2c1` (stereo not drawn) [Example 314, 8-methoxy-N-(1-(tetrahydro-2H-pyran-3-yl)-1H-pyrazol-4-yl)-2H-pyrazolo[3,4-c]quinolin-4-amine], the IC50 in test [1] and in test [2] was 0.01 to 0.1 µM each time.

For the molecule `COc1cccc2nc(Nc3cnn(C4CCNCC4)c3)c3[nH]ncc3c12` [Example 236, 9-methoxy-N-(1-(piperidin-4-yl)-1H-pyrazol-4-yl)-3H-pyrazolo[3,4-c]quinolin-4-amine], the figures for the IC50 in test [1] and in test [2] were 0.01 to 0.1 µM and less than 0.01 µM, respectively.

On to `CS(=O)(=O)c1ccc2nc(Nc3ccc(N4CCOCC4)cc3)c3[nH]ncc3c2c1` [Example 55, 8-(methylsulfonyl)-N-(4-morpholinophenyl)-3H-pyrazolo[3,4-c]quinolin-4-amine], for which the IC50 in test [1] was less than 0.01 µM; in test [2], 0.01 to 0.1 µM.

With `CC(C)=Cn1cc(Nc2nc3ccc(S(C)(=O)=O)cc3c3cn[nH]c23)cn1` [Example 263, N-(1-(2-methylprop-1-en-1-yl)-1H-pyrazol-4-yl)-8-(methylsulfonyl)-3H-pyrazolo[3,4-c]quinolin-4-amine], the IC50 in test [1] is 0.01 to 0.1 µM; in test [2], less than 0.01 µM.

For the molecule `COCCCn1cc(Nc2nc3cccc(OC)c3c3cn[nH]c23)cn1` [Example 183, 9-methoxy-N-(1-(3-methoxypropyl)-1H-pyrazol-4-yl)-3H-pyrazolo[3,4-c]quinolin-4-amine], the IC50 in test [1] was 0.1 to 1 µM; in test [2], less than 0.01 µM.

`CS(=O)(=O)c1ccc2c(c1)nc(Nc1ccc(N3CCN(CCO)CC3)cc1)c1[nH]ncc12` [Example 303, 2-(4-(4-((7-(methylsulfonyl)-3H-pyrazolo[3,4-c]quinolin-4-yl)amino)phenyl)piperazin-1-yl)ethan-1-ol]: the IC50 fell in the range of 0.01 to 0.1 µM in test [1] and 0.1 to 1 µM in test [2].

Regarding `CCc1cccc(Nc2nc3ccc(S(C)(=O)=O)cc3c3c[nH]nc23)c1` [Example 333, N-(3-ethylphenyl)-8-(methylsulfonyl)-2H-pyrazolo[3,4-c]quinolin-4-amine], the IC50 in test [1] was in the range of 0.1 to 1 µM; in test [2] it was 0.01 to 0.1 µM.

On to `COCCCn1ncc(Nc2nc3ccc(S(C)(=O)=O)cc3c3cn[nH]c23)c1OC` [Example 232, N-(5-methoxy-1-(3-methoxypropyl)-1H-pyrazol-4-yl)-8-(methylsulfonyl)-3H-pyrazolo[3,4-c]quinolin-4-amine], for which the IC50 in test [1] was in the range of 0.1 to 1 µM; in test [2], 0.01 to 0.1 µM.

Regarding `CS(=O)(=O)c1ccc2nc(Nc3cnn(CC(F)(F)F)c3)c3[nH]ncc3c2c1` [Example 261, 8-(methylsulfonyl)-N-(1-(2,2,2-trifluoroethyl)-1H-pyrazol-4-yl)-3H-pyrazolo[3,4-c]quinolin-4-amine], the IC50 is 0.01 to 0.1 µM in test [1] and less than 0.01 µM in test [2].

As to `CC(C)(C)n1cc(Nc2nc3ccc(S(C)(=O)=O)cc3c3cn[nH]c23)cn1` [Example 195, N-(1-(tert-butyl)-1H-pyrazol-4-yl)-8-(methylsulfonyl)-3H-pyrazolo[3,4-c]quinolin-4-amine], the IC50 in test [1] was 0.01 to 0.1 µM; in test [2], less than 0.01 µM.

As for `CN1CCC(n2cc(Nc3nc4cc(S(C)(=O)=O)ccc4c4cn[nH]c34)cn2)CC1` [Example 167, N-(1-(1-methylpiperidin-4-yl)-1H-pyrazol-4-yl)-7-(methylsulfonyl)-3H-pyrazolo[3,4-c]quinolin-4-amine], the IC50 in test [1] lay within 0.01 to 0.1 µM; in test [2], 0.1 to 1 µM.

Take `COc1ccc2nc(Nc3ccc(N4CCC(N5CCOCC5)CC4)cc3)c3n[nH]cc3c2c1` [Example 86, 8-methoxy-N-(4-(4-morpholinopiperidin-1-yl)phenyl)-2H-pyrazolo[3,4-c]quinolin-4-amine]: the IC50 in test [1] and in test [2] was 0.1 to 1 µM in each case.

On to `COc1cccc2nc(Nc3cnn(CC(F)(F)F)c3)c3[nH]ncc3c12` [Example 257, 9-methoxy-N-(1-(2,2,2-trifluoroethyl)-1H-pyrazol-4-yl)-3H-pyrazolo[3,4-c]quinolin-4-amine], for which the IC50 was 0.1 to 1 µM in test [1] and less than 0.01 µM in test [2].

Turning to `COc1cccc2nc(Nc3cnn(C(C)(C)C#N)c3)c3[nH]ncc3c12` [Example 184, 2-(4-((9-methoxy-3H-pyrazolo[3,4-c]quinolin-4-yl)amino)-1H-pyrazol-1-yl)-2-methylpropanenitrile], the IC50 is 0.01 to 0.1 µM in test [1] and less than 0.01 µM in test [2].

Consider `Fc1cccc2nc(Nc3ccc(N4CCN(C5CC5)CC4)cc3)c3[nH]ncc3c12` [Example 10, N-(4-(4-cyclopropylpiperazin-1-yl)phenyl)-9-fluoro-3H-pyrazolo[3,4-c]quinolin-4-amine], for which the concentration for half-maximal inhibition (IC50) in test [1] and in test [2] was 0.1 to 1 µM each time.

Take `COCCCn1cc(Nc2nc3c(OC)cc(OC)cc3c3cn[nH]c23)cn1` [Example 290, 6,8-dimethoxy-N-(1-(3-methoxypropyl)-1H-pyrazol-4-yl)-3H-pyrazolo[3,4-c]quinolin-4-amine]: the IC50 in test [1] fell in the range of 0.1 to 1 µM; in test [2], 0.01 to 0.1 µM.

For the molecule `CC(C)(O)Cn1cc(Nc2nc3ccc(S(C)(=O)=O)cc3c3cn[nH]c23)cn1` [Example 262, 2-methyl-1-(4-((8-(methylsulfonyl)-3H-pyrazolo[3,4-c]quinolin-4-yl)amino)-1H-pyrazol-1-yl)propan-2-ol], the results for the IC50 in test [1] and in test [2] were 0.01 to 0.1 µM and less than 0.01 µM, respectively.

With `COc1ccc2nc(Nc3ccc4[nH]c(SC)nc4c3)c3n[nH]cc3c2c1` [Example 56, 8-methoxy-N-(2-(methylthio)-1H-benzo[d]imidazol-5-yl)-2H-pyrazolo[3,4-c]quinolin-4-amine], the IC50 in test [1] and in test [2] was 0.1 to 1 µM throughout.

With `COc1ccc2nc(Nc3ccc(C(=O)N4CCC(N5CCN(C)CC5)CC4)cc3)c3n[nH]cc3c2c1` [Example 6, (4-((8-methoxy-2H-pyrazolo[3,4-c]quinolin-4-yl)amino)phenyl)(4-(4-methylpiperazin-1-yl)piperidin-1-yl)methanone], the half-maximal inhibitory concentration (IC50) in test [1] lay within 0.1 to 1 µM; in test [2], 0.01 to 0.1 µM.

As to `COc1nn(C(C)C)cc1Nc1nc2cccc(OC)c2c2cn[nH]c12` [Example 224, N-(1-isopropyl-3-methoxy-1H-pyrazol-4-yl)-9-methoxy-3H-pyrazolo[3,4-c]quinolin-4-amine], the results for the IC50 in test [1] and in test [2] were 0.1 to 1 µM and less than 0.01 µM, respectively.

In the case of `COc1nn(C2CCN(C(C)(C)C)CC2)cc1Nc1nc2ccc(S(C)(=O)=O)cc2c2cn[nH]c12` [Example 228, N-(1-(1-(tert-butyl)piperidin-4-yl)-3-methoxy-1H-pyrazol-4-yl)-8-(methylsulfonyl)-3H-pyrazolo[3,4-c]quinolin-4-amine], the IC50 lay within 0.1 to 1 µM in test [1] and 0.01 to 0.1 µM in test [2].

With `COc1ccc2nc(Nc3cnn(C(C)(C)C)c3)c3[nH]ncc3c2c1` [Example 286, N-(1-(tert-butyl)-1H-pyrazol-4-yl)-8-methoxy-3H-pyrazolo[3,4-c]quinolin-4-amine], the IC50 in test [1] was 0.1 to 1 µM; in test [2], less than 0.01 µM.

For `CC(=O)Nc1cc(Nc2nc3ccc(S(C)(=O)=O)cc3c3c[nH]nc23)ccc1N1CCN(C(C)=O)CC1` [Example 352, N-(2-(4-acetylpiperazin-1-yl)-5-((8-(methylsulfonyl)-2H-pyrazolo[3,4-c]quinolin-4-yl)amino)phenyl)acetamide], the IC50 in test [1] and in test [2] was 0.01 to 0.1 µM in each case.

For the molecule `CS(=O)(=O)c1ccc2nc(Nc3cnn(C4CCCOC4)c3)c3n[nH]cc3c2c1` (stereo not drawn) [Example 323, 8-(methylsulfonyl)-N-(1-(tetrahydro-2H-pyran-3-yl)-1H-pyrazol-4-yl)-2H-pyrazolo[3,4-c]quinolin-4-amine], the IC50 in test [1] and in test [2] was 0.01 to 0.1 µM each time.

`CO[C@H]1CCCC[C@H]1n1cc(Nc2nc3ccc(S(C)(=O)=O)cc3c3c[nH]nc23)cn1` [Example 353, N-(1-((1R,2S)-2-methoxycyclohexyl)-1H-pyrazol-4-yl)-8-(methylsulfonyl)-2H-pyrazolo[3,4-c]quinolin-4-amine]: the IC50 was 0.1 to 1 µM in test [1] and less than 0.01 µM in test [2].

As to `CS(=O)(=O)c1ccc2c(c1)nc(Nc1cnn(C3CC3)c1)c1[nH]ncc12` [Example 197, N-(1-cyclopropyl-1H-pyrazol-4-yl)-7-(methylsulfonyl)-3H-pyrazolo[3,4-c]quinolin-4-amine], the IC50 in test [1] and in test [2] was 0.01 to 0.1 µM throughout.

Consider `COCC(COC)n1cc(Nc2nc3ccc(OC)cc3c3c[nH]nc23)cn1` [Example 313, N-(1-(1,3-dimethoxypropan-2-yl)-1H-pyrazol-4-yl)-8-methoxy-2H-pyrazolo[3,4-c]quinolin-4-amine], for which the IC50 in test [1] lay within 0.1 to 1 µM; in test [2] it was 0.01 to 0.1 µM.
